Data on 30 compounds can be found in patent publication US7531543B2, “Phenylpiperazine cycloalkanol derivatives and methods of their use” (Wyeth, priority 2003, dated 2009).

The experiment deals with T1, human hNET (Homo sapiens, UniProt P23975).
T1 construct: expressed in transfected cells; host or cells: MDCK-Net6 (MDCK cells stably transfected with hNET)
Kind of experiment: Norepinephrine (NE) uptake assay in MDCK-Net6 cells. Format: cell-based. As to conditions: [3H]NE uptake, MDCK-Net6 cells stably transfected with hNET; for EC50: test range 1 to 10,000 nM. The method, then: MDCK-Net6 cells, stably transfected with human hNET (Pacholczyk, T., R. D. Blakely, and S. G. Amara, Nature, 1991, 350(6316): p. 350-4) were cultured in growth medium containing high glucose DMEM (Gibco, Cat. No. 11995), 10% FBS (dialyzed, heat-inactivated, US Bio-Technologies, Lot FBD1129HI) and 500 µg/ml G418 (Gibco, Cat. No. 10131). Cells were plated at 300,000/T75 flask and cells were split twice weekly. The JAR cell line (human placental choriocarcinoma) was purchased from ATCC (Cat. No. HTB-144). The cells were cultured in growth medium containing RPMI 1640 (Gibco, Cat. No. 72400), 10% FBS (Irvine, Cat. No. 3000), 1% sodium pyruvate (Gibco, Cat. No. 1136) and 0.25% glucose. Cells were plated at 250,000 cells/T75 flask and split twice weekly. For all assays, cells were plated in Wallac 96-well sterile plates (PerkinElmer, Cat. No. 3983498).
Norepinephrine (NE) Uptake Assay
On day 1, cells were plated at 3,000 cells/well in growth medium and maintained in a cell incubator (37° C., 5% CO2). On day 2, growth medium was replaced with 200 μl of assay buffer (25 mM HEPES; 120 mM NaCl; 5 mM KCl; 2.5 mM CaCl2; 1.2 mM MgSO4; 2 mg/ml glucose (pH 7.4, 37° C.)) containing 0.2 mg/ml ascorbic acid and 10 μM pargyline. Plates containing cells with 200 μl of assay buffer were equilibrated for 10 minutes at 37° C. prior to addition of compounds. A stock solution of desipramine was prepared in DMSO (10 mM) and delivered to triplicate wells containing cells for a final test concentration of 1 μM. Data from these wells were used to define non-specific NE uptake (minimum NE uptake). Test compounds were prepared in DMSO (10 mM) and diluted in assay buffer according to test range (1 to 10,000 nM). Twenty-five microliters of assay buffer (maximum NE uptake) or test compound were added directly to triplicate wells containing cells in 200 μl of assay buffer. The cells in assay buffer with test compounds were incubated for 20 minutes at 37° C. To initiate the NE uptake, [^3H]NE diluted in assay buffer (120 nM final assay concentration) was delivered in 25 μl aliquots to each well and the plates were incubated for 5 minutes (37° C.). The reaction was terminated by decanting the supernatant from the plate. The plates containing cells were washed twice with 200 μl assay buffer (37° C.) to remove free radioligand. The plates were then inverted, left to dry for 2 minutes, then reinverted and air-dried for an additional 10 minutes. The cells were lysed in 25 μl of 0.25 N NaOH solution (4° C.), placed on a shake table and vigorously shaken for 5 minutes. After cell lysis, 75 μl of scintillation cocktail was added to each well and the plates were sealed with film tape. The plates were returned to the shake table and vigorously shaken for a minimum of 10 minutes to ensure adequate partitioning of organic and aqueous solutions. The plates were counted in a Wallac Microbeta counter (PerkinElmer) to collect the raw cpm data.
For each experiment, a data stream of cpm values collected from the Wallac Microbeta counter was downloaded to a Microsoft Excel statistical application program. Calculations of EC50 values were made using the transformed-both-sides logistic dose response program written by Wyeth Biometrics Department. The statistical program uses mean cpm values from wells representing maximum binding or uptake (assay buffer) and mean cpm values from wells representing minimum binding or uptake ((1 μM desipramine (hNET) or 1 μM paroxetine (hSERT)). Estimation of the EC50 value was completed on a log scale and the line was fit between the maximum and minimum binding or uptake values. All graphic data representation was generated by normalizing each data point to a mean percent based on the maximum and minimum binding or uptake values. The EC50 values reported from multiple experiments were calculated by pooling the raw data from each experiment and analyzing the pooled data as one experiment.

One may read the inhibition as the change of the read-out against control, counted positive when it falls. What is called EC50 is the midpoint of the concentration-response curve. The low end stands for higher potency in that assay, the high end for lower potency in that assay.

Structures can show the parent of a compound that is named as a salt.

T1 sequence (P23975 whole entry): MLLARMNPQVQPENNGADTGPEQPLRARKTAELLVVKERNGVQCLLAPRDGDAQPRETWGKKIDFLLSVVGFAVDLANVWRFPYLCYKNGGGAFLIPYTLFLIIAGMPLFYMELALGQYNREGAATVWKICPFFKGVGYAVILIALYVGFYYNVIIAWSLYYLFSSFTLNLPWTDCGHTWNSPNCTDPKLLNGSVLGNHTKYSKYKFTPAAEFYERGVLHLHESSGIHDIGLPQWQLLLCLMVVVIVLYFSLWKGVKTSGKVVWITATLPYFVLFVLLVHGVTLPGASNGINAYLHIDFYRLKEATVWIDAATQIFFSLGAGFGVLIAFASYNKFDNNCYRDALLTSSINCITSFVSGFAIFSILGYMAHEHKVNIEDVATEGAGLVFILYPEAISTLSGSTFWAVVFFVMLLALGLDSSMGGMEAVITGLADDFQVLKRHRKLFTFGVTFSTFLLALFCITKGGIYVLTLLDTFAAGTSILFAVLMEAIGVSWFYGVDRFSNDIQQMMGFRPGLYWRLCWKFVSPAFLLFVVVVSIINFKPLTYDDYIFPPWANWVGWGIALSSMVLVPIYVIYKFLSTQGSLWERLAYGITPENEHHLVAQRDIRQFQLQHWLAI

Regarding `C[C@@H]1CN(CC(c2cccc(Cl)c2)C2(O)CCCCC2)C[C@H](C)N1` (stereo partly drawn) [Example 2, 1-{1-(3-chlorophenyl)-2-[(3R,5S)-3,5-dimethylpiperazin-1-yl]ethyl}cyclohexanol dihydrochloride], the EC50 came to 150 nM. For the setting “1 μM test compound”, the inhibition at 1 µM was 97%.

For the compound `OC1(C(CN2CCNCC2)c2cccc(Br)c2)CCCCC1` (stereo not shown) [Example 3, 1-[1-(3-bromophenyl)-2-piperazin-1-ylethyl]cyclohexanol dihydrochloride], the response was half-maximal at 100 nM (EC50). Further, under “1 μM test compound”, the inhibition at 1 µM stood at 96%.

For `C[C@H]1CN(CC(c2cccc(Cl)c2)C2(O)CCCCC2)CCN1` (stereo partly drawn) [Example 4, 1-{1-(3-chlorophenyl)-2-[(3S)-3-methylpiperazin-1-yl]ethyl}cyclohexanol dihydrochloride], the EC50 came out at 59 nM. The inhibition at 1 µM (1 μM test compound) was 95%.

Turning to `C[C@@H]1CN(CC(c2cccc(Cl)c2)C2(O)CCCCC2)CCN1` (stereo partly drawn) [Example 5, 1-{1-(3-chlorophenyl)-2-[(3R)-3-methylpiperazin-1-yl]ethyl}cyclohexanol dihydrochloride], the EC50 was determined as 110 nM. Further, the inhibition at 1 µM (1 μM test compound) worked out at 94%.

`OC1(C(CN2CCNCC2)c2ccc(Cl)c(Cl)c2)CCCCC1` (stereo not shown) [Example 6, 1-[1-(3,4-dichlorophenyl)-2-piperazin-1-ylethyl]cyclohexanol dihydrochloride] returned an EC50 of 210 nM. In addition, the inhibition at 1 µM (1 μM test compound) turned out to be 87%.

Turning to `OC1(C(CN2CCNCC2)c2cccc(Br)c2)CCCCCC1` (stereo not shown) [Example 7, 1-[1-(3-bromophenyl)-2-piperazin-1-ylethyl]cycloheptanol dihydrochloride], the inhibition at 1 µM (1 μM test compound) was 86%.

On to `OC1(C(CN2CCNCC2)c2cccc(Cl)c2)CCCCCC1` (stereo not shown) [Example 8, 1-[1-(3-chlorophenyl)-2-piperazin-1-ylethyl]cycloheptanol dihydrochloride], for which the inhibition at 1 µM (1 μM test compound) came out at 81%.

For the compound `OC1(C(CN2CCNCC2)c2cccc(F)c2)CCCCC1` (stereo not shown) [Example 9, 1-[1-(3-fluorophenyl)-2-piperazin-1-ylethyl]cyclohexanol dihydrochloride], the EC50 came to 720 nM. For the same compound, the inhibition at 1 µM (1 μM test compound) came to 79%.

In the case of `OC1(C(CN2CCNCC2)c2cccc(Cl)c2)CCCC1` (stereo not shown) [Example 10, 1-[1-(3-chlorophenyl)-2-piperazin-1-ylethyl]cyclopentanol dihydrochloride], the inhibition at 1 µM (1 μM test compound) stood at 63%.

In turn, `OC1(C(CN2CCNCC2)c2ccc(F)cc2)CCCCC1` (stereo not shown) [Example 11, 1-[1-(4-fluorophenyl)-2-piperazin-1-ylethyl]cyclohexanol dihydrochloride] had an EC50 of 6400 nM. For the same compound, the inhibition at 1 µM (1 μM test compound) stood at 60%.

Regarding `OC1(C(CN2CCNCC2)c2ccc(Br)cc2)CCC1` (stereo not shown) [Example 12, 1-[1-(4-bromophenyl)-2-piperazin-1-ylethyl]cyclobutanol dihydrochloride], the inhibition at 1 µM (1 μM test compound) was 55%.

On to `COc1ccc(C(CN2CCNCC2)C2(O)CCCC2)cc1Br` (stereo not shown) [Example 13, 1-[1-(3-bromo-4-methoxyphenyl)-2-piperazin-1-ylethyl]cyclopentanol dihydrochloride], for which the inhibition at 1 µM (1 μM test compound) was found to be 53%.

As for `OC1(C(CN2CCNCC2)c2cccc(C(F)(F)F)c2)CCC1` (stereo not shown) [Example 14, 1-{2-piperazin-1-yl-1-[3-(trifluoromethyl)phenyl]ethyl}cyclobutanol dihydrochloride], for the setting “1 μM test compound”, the inhibition at 1 µM stood at 27%.

In the case of `CN1CCN(CC(c2cccc(C(F)(F)F)c2)C2(O)CCC2)CC1` (stereo not shown) [Example 15, 1-{2-(4-methylpiperazin-1-yl)-1-[3-(trifluoromethyl)phenyl]ethyl}cyclobutanol dihydrochloride], the inhibition at 1 µM (1 μM test compound) is 51%.

Turning to `OC1(C(CN2CCNCC2)c2cccc(Br)c2)CCCC1` (stereo not shown) [Example 16, 1-[1-(3-bromophenyl)-2-piperazin-1-ylethyl]cyclopentanol dihydrochloride], the inhibition at 1 µM (1 μM test compound) turned out to be 51%.

On to `OC1(C(CN2CCNCC2)c2ccc(Br)cc2)CCCCC1` (stereo not shown) [Example 17, 1-[1-(4-bromophenyl)-2-piperazin-1-ylethyl]cyclohexanol dihydrochloride], for which the inhibition at 1 µM (1 μM test compound) was found to be 46%.

In the case of `OC1(C(CN2CCNCC2)c2ccc(Cl)cc2)CCC1` (stereo not shown) [Example 18, 1-[1-(4-chlorophenyl)-2-piperazin-1-ylethyl]cyclobutanol dihydrochloride], the inhibition at 1 µM (1 μM test compound) is 44%.

Turning to `OC1(C(CN2CCNCC2)c2ccc(F)cc2)CCC1` (stereo not shown) [Example 19, 1-[1-(4-fluorophenyl)-2-piperazin-1-ylethyl]cyclobutanol dihydrochloride], the inhibition at 1 µM (1 μM test compound) came to 43%.

In the case of `Cl.Cl.OC1(C(CN2CCNCC2)c2ccc(Br)cc2)CCC1` (stereo not shown) [Example 20, 1-[1-(4-bromophenyl)-2-piperazin-1-ylethyl]cyclobutanol dihydrochloride], the “% Inhibition @ 1 μM (hNET)” value (1 μM test compound) is on record as 55%.

With `CN1CCN(CC(c2ccc(Br)cc2)C2(O)CCC2)CC1` (stereo not shown) [Example 21, 1-[1-(4-bromophenyl)-2-(4-methylpiperazin-1-yl)ethyl]cyclobutanol dihydrochloride], under “1 μM test compound”, the inhibition at 1 µM came out at 36%.

With `OC1(C(CN2CCNCC2)c2cccc(F)c2)CCC1` (stereo not shown) [Example 22, 1-[1-(3-fluorophenyl)-2-piperazin-1-ylethyl]cyclobutanol dihydrochloride], the inhibition at 1 µM (1 μM test compound) was found to be 34%.

Turning to `OC1(C(CN2CCNCC2)c2cccc(Cl)c2)CCC1` (stereo not shown) [Example 23, 1-[1-(3-chlorophenyl)-2-piperazin-1-ylethyl]cyclobutanol dihydrochloride], the inhibition at 1 µM (1 μM test compound) was determined as 28%.

With `CN1CCN(CC(c2cccc(Cl)c2)C2(O)CCC2)CC1` (stereo not shown) [Example 24, 1-[1-(3-chlorophenyl)-2-(4-methylpiperazin-1-yl)ethyl]cyclobutanol dihydrochloride], the inhibition at 1 µM (1 μM test compound) amounted to 34%.

`OC1(C(CN2CCNCC2)c2ccccc2F)CCCCC1` (stereo not shown) [Example 25, 1-[1-(2-fluorophenyl)-2-piperazin-1-ylethyl]cyclohexanol dihydrochloride]: the inhibition at 1 µM (1 μM test compound) was determined as 31%.

Consider `OC1(C(CN2CCNCC2)c2ccc(Cl)cc2)CCCCC1` (stereo not shown) [Example 26, 1-[1-(4-chlorophenyl)-2-piperazin-1-ylethyl]cyclohexanol dihydrochloride], for which, where the note is “1 μM test compound”, the inhibition at 1 µM amounted to 29%.

As for `OC1(C(CN2CCNCC2)c2cccc(Br)c2)CCC1` (stereo not shown) [Example 27, 1-[1-(3-bromophenyl)-2-piperazin-1-ylethyl]cyclobutanol dihydrochloride], the inhibition at 1 µM (1 μM test compound) came to 22%.

Regarding `OC1(C(CN2CCNCC2)c2ccccc2F)CCC1` (stereo not shown) [Example 28, 1-[1-(2-fluorophenyl)-2-piperazin-1-ylethyl]cyclobutanol dihydrochloride], the inhibition at 1 µM (1 μM test compound) was 14%.

Regarding `CN1CCN(CC(c2cccc(F)c2)C2(O)CCC2)CC1` (stereo not shown) [Example 29, 1-[1-(3-fluorophenyl)-2-(4-methylpiperazin-1-yl)ethyl]cyclobutanol dihydrochloride], the inhibition at 1 µM (1 μM test compound) is 12%.

Turning to `CN1CCN(CC(c2ccc(Cl)cc2)C2(O)CCC2)CC1` (stereo not shown) [Example 30, 1-[1-(4-chlorophenyl)-2-(4-methylpiperazin-1-yl)ethyl]cyclobutanol dihydrochloride], the inhibition at 1 µM (1 μM test compound) was -1%.

In the case of `CN1CCN(CC(c2ccccc2F)C2(O)CCC2)CC1` (stereo not shown) [Example 31, 1-[1-(2-fluorophenyl)-2-(4-methylpiperazin-1-yl)ethyl]cyclobutanol dihydrochloride], the inhibition at 1 µM (1 μM test compound) was -6%.
